Assays:
T241 fibrosarcoma cells [1] = test: TUNEL and Ki67 staining of tumour sections; assay type: in vivo, mice
Protocol: Paraffin-sections of tumours from control- or HRGP-treated animals were immunohistochemically (IHC) stained for CD31 and Ki67 using a goat anti-mouse CD31 antibody (1506; Santa Cruz), diluted 1:500 and incubated at +4° C. over night, and a rat anti-mouse Ki67 antibody (TEC-3/M7249; DAKO) diluted 1:50 and incubated for 30 min. at room temperature, according to standard IHC procedures. Detection of apoptotic cells by the TUNEL-technique was performed using ApopTag™ (Intergen Company) according to the manufacturer's protocol. Stereological quantification of vascular parameters was performed as described earlier by Weibel et al (1979) and Gundersen et al (1988). Quantification of the relative number of Tunel- and Ki67-positive cells was calculated from approximately 3000 cells per tumour section, in three tumours from each treatment group. Significance at the level of P<0.05 was calculated using Students t-test.

[2] = system: NIH 3T3 murine fibroblasts; test: chemotaxis assay in modified Boyden chamber, NIH 3T3 fibroblasts; assay type: cell-based; settings: 100 ng/ml HRGP
Protocol: The porcine aortic endothelial (PAE) cell line overexpressing FGF receptor-1 (FGFR-1) (Wennström et al 1992) was cultured in Ham's F12/10% fetal bovine serum (FCS) and NIH 3T3 murine fibroblasts were cultured in Dulbecco's modified medium (DMEM)/10% newborn calf serum (NCS). F12, DMEM and serum were bought from Life Technologies. Primary bovine adrenal cortex capillary endothelial (BCE) cells were cultured on gelatin-coated dishes in DMEM/10% NCS and 2 ng/ml FGF-2 (Boehringer Mannheim). For chemotaxis assays, both PAE and NIH 3T3 cells were serum-starved over night in 0.1% BSA and BCE cells in 0.5% NCS. Human embryonic kidney (HEK) 293-EBNA cells were cultured in DMEM/10% FCS. Approximately every second month they were given 0.25 mg/ml G418 (Calbiochem) to ensure positive selection of the EBNA-1 expressing cells.
A migration assay was performed in a modified Boyden chamber as described earlier (Auerbach et al., 1991) using micropore polycarbonate filters (8 μm thick, 8 μm pore) coated with type-1 collagen solution at 100 μg/ml (Vitrogen 100, Collagen Corp). […] After 5 h at 37° C., migrated cells were stained with Giemsa and counted using an image analysis software (Easy Image Analysis) from Tekno Optik AB, Sweden. All samples were analysed in at least six parallel wells for each treatment.

[3] = in vivo; cited from earlier work
primary BCE cells = test: comparative study pep2/pep3, chemotaxis; assay type: cell-based, bovine; settings: 100 ng/ml, FGF-2 10 ng/ml
Protocol: Primary endothelial cells were starved over night in 0.5% normal calf serum. A migration assay was performed in a modified Boyden chamber as described earlier (Auerbach et al., 1991) using micropore polycarbonate filters (8 μm thick, 8 μm pore) coated with type-1 collagen solution at 100 μg/ml (Vitrogen 100, Collagen Corp). Cells were trypsinized and resuspended at 7.5×10^5 cells/ml in Dulbecco's modified essential medium (Invitrogen) containing 0.25% BSA and Trasylol at 1000 KIE. The cell suspension was added in the upper chamber and FGF-2 (10 ng/ml), HRGP (100 ng/ml), peptide 2 or 3 (50 ng/ml) in medium containing 0.25% BSA were added to the lower chamber. The peptides were dissolved in PBS containing a 10-fold molar excess (Zn:peptide) of Zn^2+-acetate. After 5 h at 37° C., cells that had migrated through the filter were stained with Giemsa and counted using the Easy Image Analysis software. All samples were analyzed in at least six wells for each treatment. Results of the study are illustrated in FIG. 7.

T241 fibrosarcoma cells [4] = test: fibrosarcoma tumour growth in mice (HRGP); assay type: in vivo; settings: fibrosarcoma-bearing mice, summary of experiment 4
Protocol: Animal work was carried out at the local animal facility and was approved by the Uppsala University board of animal experimentation and thus performed according to the UKCCCR guidelines for the welfare of animals in experimental neoplasia (Workman et al (1988)). The mice were anesthetized with isoflurane (Forene; Abbott) during all manipulations. Female, 5 week old, C57BL6/1 mice (Mollegard/Bomhultgard, Denmark) were injected with 0.5×10^6 T241 fibrosarcoma cells subcutaneously (s.c.) into the left flank. Animals carrying palpable tumours were randomized (n=7-10 animals/treatment group) and received treatment with vehicle (PBS), 4 mg/kg/day of pHRGP or 5 mg/kg/day of human IgG or His-HRGP, given as daily subcutaneous injections in the right flank. The tumours were measured with a caliper once a day, in a blind procedure, and volumes were calculated by the formula […]. When the tumours reached the upper limit of 2 cm^3, the mice were sacrificed. Three animals in each group were perfused with 4% paraformaldehyde in PBS pH 7.4. Tumours were embedded in paraffin according to standard histological procedures and sectioned at […] thickness.
C57/bl6 mice were inoculated subcutaneously with T241 fibrosarcoma cells on their left flank and when the tumours were palpable (after 4-6 days), a daily treatment was initiated with HRGP or control (PBS; FIG. 2A, or human IgG; FIG. 2B). Endostatin was included in one study for comparison (FIG. 2B). The treatment was given as subcutaneous injections in the right flank until the size of the control tumours reached the upper limit of […] (11 days; FIG. 2A, 14 days; FIG. 2B). Injections with both pHRGP (4 mg/kg/day) and His-HRGP (5 mg/kg/day) led to a drastic reduction in tumour growth and at the time of sacrifice, the size of the tumours was reduced by 67% (FIG. 2A) and 61% (FIG. 2B) respectively, compared to control-treated animals. Endostatin treatment (25 mg/kg/day) lacked significant inhibitory effect on tumour growth in this model (32% decrease).

HRGP: mature human Histidine Rich Glycoprotein, about 507 amino acid residues
tumour apoptosis compared to control group (T241 fibrosarcoma cells [1]; TUNEL staining, HRGP vs IgG control): No difference in tumour apoptosis
percentage of apoptotic (TUNEL-positive) cells in the tumours (T241 fibrosarcoma cells [1]; tumours from HRGP-treated mice): less than 1%
proportion of proliferating (Ki67-positive) cells in tumours (T241 fibrosarcoma cells [1]; tumours from HRGP-treated mice, control 43%): 29%
FGF-2-induced chemotaxis of NIH 3T3 murine fibroblasts [2]: not inhibited
plasma half-life [3]: three days
FGF-2-induced chemotaxis of primary BCE cells (primary BCE cells): inhibited
reduction in tumour volume compared to control-treated mice (T241 fibrosarcoma cells [4]): more than 60%

From patent publication US7662388B2, “Endogenous peptide and active subfragments thereof” (Innoventus Project AB, priority 2003, dated 2010)
